Publication PMC6348444, “New Water-Soluble Copper(II) Complexes with Morpholine–Thiosemicarbazone Hybrids: Insights into the Anticancer and Antibacterial Mode of Action” (Journal of Medicinal Chemistry, 2018)

What was measured:
[1] = test system: Staphylococcus aureus CECT 86 (ATCC 12600); experiment: MIC microdilution, S. aureus; format: cell-based; details: planktonic cells; for S. aureus MIC50: growth inhibited at 50%; for S. aureus MIC100: lowest concentration completely inhibiting growth
Procedure: Wild-type P. aeruginosa PAO1 strain CECT 4122 (ATCC 15692) and S. aureus CECT 86 (ATCC 12600) were obtained from the Spanish Type Culture Collection (CECT). All strains were routinely cultivated in TSB medium (Sharlab, Spain) at 37 °C. MIC assays were determined by the microdilution method using TSB broth following the method described by the Clinical and Laboratory standards Institute.[94] In brief, compounds were diluted in a 96-well microtiter plate (tissue culture-treated polystyrene; […]

[2] = n-octanol/water distribution coefficient, shake-flask; format: physicochemical; details: n-octanol/buffered aqueous solution, pH 7.40, UV-vis
Procedure: The titrations were carried out under a nitrogen atmosphere.

A2780 cells = experiment: MTT cytotoxicity assay, A2780; format: cell-based, human; details: 72 h exposure
mouse R2 RNR protein = target: T1, mouse R2 RNR protein (Mus musculus, UniProt P11157); experiment: Tyrosyl radical reduction in R2 RNR protein by EPR; format: biochemical; details: 1:1 protein-to-compound ratio, 298 K, presence of DTT, within 90 s
T1 construct: made in house; host or cells: Escherichia coli
T1 sequence (P11157 1-390): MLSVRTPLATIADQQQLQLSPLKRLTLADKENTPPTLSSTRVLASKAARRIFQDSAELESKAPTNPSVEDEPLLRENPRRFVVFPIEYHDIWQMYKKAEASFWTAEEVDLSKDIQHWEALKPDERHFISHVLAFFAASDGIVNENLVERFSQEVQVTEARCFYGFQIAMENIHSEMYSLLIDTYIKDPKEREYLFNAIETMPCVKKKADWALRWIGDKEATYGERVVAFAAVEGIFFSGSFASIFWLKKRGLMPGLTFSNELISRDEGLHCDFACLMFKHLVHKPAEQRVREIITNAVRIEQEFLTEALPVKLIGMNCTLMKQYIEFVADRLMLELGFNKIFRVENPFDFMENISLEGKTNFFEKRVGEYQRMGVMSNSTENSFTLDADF
Procedure: The effects of the most cytotoxic complexes 2 and 5, and the corresponding proligands HL^2 and HL^5, on the mouse R2 tyrosyl radical were investigated by EPR spectroscopy at 30 K. The proligands and their Cu(II) complexes were incubated with the mouse R2 RNR protein at 1:1 protein-to-compound mole ratio at 298 K in the presence or absence of the reducing agent dithiothreitol (DTT), and the time-dependent reduction of the tyrosyl radical was monitored.[39] Tyrosyl radical reduction by the investigated compounds was observed only in the presence of DTT. Upon incubation with HL^2, HL^5, and 2, 5, 50% of tyrosyl radical was reduced within 90 s, after which no further reduction was observed (Figure S15). […] HL^2 and HL^5 (λmax = 312 and 320 nm, respectively) readily reacted with FeSO4·7H2O affording Fe(II) bis-ligand complexes (λmax = 373, 610 nm and λmax = 385, 645 nm, respectively) at both 1:1 and 1:2 Fe-to-ligand mole ratios. […]
The 9.4 GHz EPR spectra were recorded at 30 K on a Bruker EleXsys II E540 EPR spectrometer with an Oxford Instruments ESR900 helium cryostat, essentially as described previously.[51] […]

[3] = Cyclic voltammetry, redox potentials; format: physicochemical; details: first reduction step
Procedure: To assess the redox properties of 1-6, detailed electrochemical and spectroscopic studies in various solvents were performed using cyclic voltammetry as well as EPR-spectroelectrochemistry. Additionally, the UV-vis spectra of 1-5 were measured (Figure S8). […] The second reduction step occurred at -1.8 V versus Fc^+/Fc (-1.16 V vs NHE) and was less reversible, indicating a ligand-based reduction. […] In aqueous solutions, the reduction potentials shifted to the less negative values, and reduction was less reversible as shown for 2 in Figure S10. […] Cyclic voltammetric experiments were performed as described previously.[46] The cyclic voltammograms were measured in the cathodic region in different solvents (DMSO, methanol, DMSO/H2O). The analytical purity grade LiClO4 (Sigma-Aldrich) and distilled and deionized water were used for preparation of 1 mM aqueous solutions of the investigated complexes 1-6. EPR spectra were recorded with the EMX plus. In situ UV-vis-NIR spectroelectrochemical measurements were performed on a spectrometer (Avantes, Model AvaSpec-2048x14-USB2 in the spectroelectrochemical cell kit ([…]3)) with the Pt-microstructured honeycomb working electrode, purchased from Pine Research Instrumentation. The cell was positioned in the CUV-UV Cuvette Holder (Ocean Optics) connected to the diode-array UV-vis-NIR spectrometer by optical fibers. UV-vis-NIR spectra were processed using the AvaSoft 7.7 software package. Halogen and deuterium lamps were used as light sources (Avantes, Model AvaLight-DH-S-BAL). The in situ EPR spectroelectrochemical experiments were carried out under an argon atmosphere in the EPR flat cell equipped with a large platinum mesh working electrode. The freshly prepared solutions were carefully purged with argon and the electrolytic cell was polarized in the galvanostatic mode directly in the cylindrical EPR cavity TM-110 (ER 4103 TM), and the EPR spectra were measured in situ.

SMILES	S. aureus MIC50 [1]	S. aureus MIC100 [1]	log D7.4 [2]	IC50 (A2780 cells)	tyrosyl radical reduced (mouse R2 RNR protein)	E1/2 Red1 (DMSO) vs Fc+/Fc ([3]; vs Fc+/Fc)	E1/2 Red1 (DMSO) vs NHE ([3]; vs NHE (in brackets))	E1/2 Red1 (MeOH) vs Fc+/Fc ([3]; vs Fc+/Fc)	E1/2 Red1 (MeOH) vs NHE ([3]; vs NHE (in brackets))	E1/2 Red1 (H2O) vs Fc+/Fc ([3]; H2O, vs Fc+/Fc)	E1/2 Red1 (H2O) vs NHE ([3]; H2O, vs NHE (in brackets))
[Cl][Cu][S]C(=NN=Cc1ccc(CN2CCOCC2)cn1)Nc1ccccc1 [complex 5, [Cu(L^5)Cl]]	3 µg/mL	10 µg/mL	+1.49 ± 0.06	9 ± 2 nM	50%	–0.77 V	–0.13 V	–0.48 V	+0.16 V		
CN(C)C(=NN=Cc1ccc(CN2CCOCC2)cn1)[S][Cu][Cl] [complex 2, [Cu(L^2)Cl]]	2 µg/mL	10 µg/mL	+0.30 ± 0.01	12 ± 2 nM	50%	–0.80 V	–0.16 V	–0.54 V	+0.10 V	–0.52 V	+0.12 V
